Experimental data taken from patent US20140171510A1, “HO[…] AND/OR CONJUGATES OF AMPHETAMINE AND OTHER […] PROCESSES FOR MAKING AND USING THE SAME” (priority 2011, published 2014).

How the values were obtained:
[1] = Intranasal study in rats, plasma d-amphetamine by ELISA (Example 7); conditions: for % Tmax: relative to d-amp
[2] = Intravenous study in rats, plasma d-amphetamine by ELISA (Example 8); conditions: for Tmax: d-amphetamine in plasma, […] equivalent; for % Tmax: relative to d-amp
[3] = pH of the prodrug in deionized water at various concentrations; format: physicochemical
Text: In a preferred embodiment, the homoarginine amphetamine prodrug comprises a dihydrochloride salt of homoarginine amphetamine. The pH of this prodrug in deionized water at various concentrations is as follows: […]

[4] = Oral PK of hArg-Amp-2HCl and Lys-Amp in rats (Example 9); conditions: for AUC0-24 h of d-amphetamine: equimolar doses (hArg-Amp-2HCl […], Lys-Amp 5.05 mg/kg)
[5] = Single-dose crossover oral PK study of hArg-Amp-2HCl and Lys-Amp in humans (Example 10); conditions: for AUC0-24 h of d-amphetamine: fasted, Vyvanse 30 mg (d-amphetamine equivalent dosages); for plasma concentrations of intact prodrug: 25 mg hArg-Amp-2HCl or same molar dose, lower limit of quantitation 1.00 ng/mL
[6] = Average results of oral studies in rats (Table 3); format: in vivo; conditions: for % Tmax: average of oral studies in rats, relative to Lys-Amp
[7] = Oral gavage PK study of hArg-Amp vs Lys-Amp in rats, plasma d-amphetamine by ELISA (Example 6); conditions: relative to Lys-Amp
[8] = Parenteral (intranasal, intravenous) administration in rats, release of amphetamine (Example 1); conditions: parental routes (intranasal, intravenous)
[9] = Oral PK of hArg-Amp-2HCl and Lys-Amp in dogs (Example 9)
[10] = oral solution, equimolar doses (4.20 and 5.05 mg/kg)
[11] = oral solution, hArg-Amp-2HCl 25 mg
[12] = oral solution, hArg-Amp-2HCl 25 mg, Vyvanse 30 mg
[13] = equimolar doses (1.5 and 1.8 mg/kg)

Compound	% Tmax [1] [%]	Tmax [2] [m]	% Tmax [2] [%]	AUC0-24 h of intact prodrug [4, 10] [ng·h/mL]	Cmax of d-amphetamine [4, 10] [ng/mL]	Cmax of intact prodrug [4, 10] [ng/mL]	AUC0-24 h of d-amphetamine ([4]; oral solution) [ng·h/mL]	AUC0-24 h of d-amphetamine [5, 11] [ng·h/mL]	Cmax of d-amphetamine [5, 12] [ng/mL]	Tmax of intact prodrug [5, 12] [min]	% Tmax [6]	% Tmax [7] [%]	further results
C[C@H](N)Cc1ccccc1 [d-amp, d-amphetamine]	100	5	100										Tmax ([1]; d-amphetamine in plasma, […] equivalent, given in minutes): 5 m
C[C@@H](Cc1ccccc1)NC(=O)[C@@H](N)CCCCN=C(N)N.Cl.Cl [hArg-Amp-2HCl, l-homoarginine-d-amphetamine dihydrochloride]				1.8	43.2	3.1	447.2	282.7	20.7	0			pH ([3]; 0.1 mg/mL (0.3 mM) in deionized water): 6.15 ± 0.1; pH ([3]; 1.0 mg/mL ([…]) in deionized water): 5.40 ± 0.1; pH ([3]; 10 mg/mL (26.4 mM) in deionized water): 4.35 ± 0.1; pH ([3]; 100 mg/mL (264.3 mM) in deionized water): 3.30 ± 0.1; Tmax of d-amphetamine, hArg-Amp-2HCl/Lys-Amp ([4]; oral): 150.0%; Tmax of intact prodrug, hArg-Amp-2HCl/Lys-Amp ([4]; oral): 100.0%^; Tmax of intact prodrug [4, 10]: 15 min; Tmax of d-amphetamine, hArg-Amp-2HCl/Lys-Amp ([5]; oral): 110.5%; Tmax of intact prodrug, hArg-Amp-2HCl/Lys-Amp ([5]; oral): 0%
l-homoarginine-d-amphetamine [hArg-Amp]	600	5	100								200-400%	133	Tmax ([6]; average of oral studies in rats (n = 30 per compound)): 2 to 4 h; Tmax of d-amphetamine [5, 12]: approximately three hours; plasma concentrations of intact prodrug ([5]; oral, listed as homoarginine amphetamine prodrug): ≤ 1.00 ng/mL; plasma concentrations of intact prodrug ([5]; oral, listed as homoarginine-amphetamine prodrug): below the detectable limit; period over which amphetamine is eliminated after the maximum plasma concentration ([5]; single oral dose of 25 mg): about 45 hours; release of amphetamine [8]: < 25%
l-lysine-d-amphetamine [Lys-Amp, reference compound]	3600		100	74.9	71.5	90.2	596.4	421.9	30.0	36.6	100%	100	AUC0-24 h of intact prodrug [9, 13]: 285.8 ng·h/mL; Cmax of d-amphetamine [9, 13]: 95.4 ng/mL; Cmax of intact prodrug [9, 13]: 305.5 ng/mL; AUC0-24 h of d-amphetamine ([9]; equimolar doses (hArg-Amp-2HCl […], Lys-Amp 1.8 mg/kg)): 775.0 ng·h/mL; AUC0-24 h of intact prodrug [5, 12]: 19.4 ng·h/mL; Cmax of intact prodrug [5, 12]: 18.1 ng/mL
